Assay in all cases: DTP human tumour cell line panel, 48 h
In assay [1] the test system is COLO 205.
For assay [2], the system named is DMS-273.
Assay [3] has as its system HCC 2998.
For assay [4], the system named is HOP-92.
Assay [5] relates to KM-20L2.
Assay [6] has as its system Malme-3M.
The test system of assay [7] is OVCAR-5.
Assay [8] deals with SF-268.
The test system of assay [9] is SK-OV-3.
In assay [10] the test system is SNB-19.
Assay [11] relates to SNB-78.
Assay [12] deals with SW-620.
For assay [13], the system named is UO-31.
The subject of assay [14] is XF498.
Assay [15] has as its system DMS-114.
In assay [16] the test system is HOP-18.

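Briefly, cells in 96-well plates were exposed to five compound concentrations for 48 h, and endpoints were estimated by linear interpolation. The concentration for 50% growth inhibition is given as GI50.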 Activity calls are given as the source filed them. Cut-off read from the data, not from the text of the source: active = GI50 up to about 1.1 µM and inactive = higher.

As for `CCCCCCSc1nc(N)nc2nc[nH]c12`, the GI50 in [1] was 38.9 µM (inactive); in assay [2] it was 43.7 µM (inactive); in [3], > 55.5 µM (inactive); in assay [4] it was 28.8 µM (inactive); in [5] it was 39.7 µM (inactive); in assay [6], 35.7 µM (inactive). Also, the GI50 in assay [7] was 41.2 µM (inactive); in [8] it was 46.7 µM (inactive); in assay [9] it was 28.8 µM (inactive); in [10] it was 39.4 µM (inactive); in assay [11], 38.5 µM (inactive); in [12], 56.2 µM (inactive). The GI50 in [13] was 24.3 µM (inactive); in assay [14] it was 32.5 µM (inactive).

In the case of `Cc1cc(O)c2c(c1O)C(=O)C13C(=C(O)C4C(O)C1C1C(O)C3C(O)=C3C(=O)c5c(O)cc(C)c(O)c5C(=O)C341)C2=O` (configuration not stated), the GI50 in assay [1] is 0.0276 µM (active); in [15] it was 0.0146 µM (active); in assay [2] it was 0.0962 µM (active); in [3] it was 0.032 µM (active); in assay [16] it was 0.0615 µM (active); in assay [4], 0.24 µM (active). Besides, the GI50 in assay [5] is 4.28 µM (inactive); in assay [6] it was 0.0428 µM (active); in assay [7], 0.778 µM (active); in assay [8] it was 0.0542 µM (active); in assay [9] it was 0.0378 µM (active); in [10] it was 0.668 µM (active). In addition, the GI50 is 0.0803 µM (active) in assay [11], 0.0507 µM (active) in assay [12], 0.0392 µM (active) in assay [13] and 0.134 µM (active) in assay [14].

As for `CCOC(=O)/C=C/c1c[nH]c(C(=O)OCC)c1`, the GI50 in [1], in assay [15], in assay [2], in assay [3], in assay [16] and in assay [4] was > 100 µM (inactive) each time. In addition, the GI50 in assay [5], in [6], in assay [7], in assay [8], in assay [9] and in assay [10] was > 100 µM (inactive) each time. The GI50 in assay [11] was > 86.1 µM (inactive); in assay [12], > 100 µM (inactive); in [13], > 100 µM (inactive); in assay [14], > 95.1 µM (inactive).

On to `O=C1C2C3C=C4c5ccccc5N(c5ccccc5)C4(C2C(=O)N1Cc1ccccc1)C1C(=O)N(Cc2ccccc2)C(=O)C31` (configuration not stated), for which the GI50 in assay [1] was > 100 µM (inactive); in [15], > 100 µM (inactive); in assay [3], > 100 µM (inactive); in assay [16], > 100 µM (inactive); in [4], 39.5 µM (inactive); in assay [5] it was > 100 µM (inactive). Also, the GI50 in assay [6], in [7], in [8], in [10], in [11] and in [12] was > 100 µM (inactive) in each case. Besides, the figures for the GI50 in assay [13] and in assay [14] were > 100 µM (inactive) and 96.2 µM (inactive), respectively.

Consider `CN(C)CCNC(=O)c1cc(Cl)cc2cc3ccccc3nc12`, for which the GI50 in [1] is 0.433 µM (active); in [15] it was 0.792 µM (active); in assay [2] it was 0.733 µM (active); in [3], 1.39 µM (inactive); in [16], 6.44 µM (inactive); in assay [5], 0.422 µM (active). In addition, the GI50 in [6] is 5.73 µM (inactive); in assay [7], 1.15 µM (inactive); in assay [8] it was 1.22 µM (inactive); in assay [9], 2.21 µM (inactive); in assay [10] it was 1.33 µM (inactive); in [11], 1.97 µM (inactive). Further, the results for the concentration for 50% growth inhibition (GI50) in assay [12], in assay [13] and in [14] were 0.519 µM (active), 1.02 µM (active) and 0.966 µM (active), respectively.

Regarding `O=C(OCc1ccccc1)OOC(=O)OCc1ccccc1`, the GI50 in [1], in assay [15], in assay [3], in assay [4], in assay [5] and in assay [6] was > 100 µM (inactive) in each case. Besides, the GI50 in assay [7], in assay [8], in [9], in assay [10], in assay [11] and in assay [12] was > 100 µM (inactive) in each case. In addition, the GI50 in [13] is > 100 µM (inactive).

Regarding `COC(=O)C1C(O)C(C)C(O)C(C)(O)/C=C\C=C(C)C(=O)Nc2c(C)c(OC(C)=O)c3c(c2O)C(=O)C(C)=C2OCOC(=C23)C(C)=CC(C)(O)C(O)C(C)C1OC(C)=O` (configuration not stated), the GI50 in [1] was 18.6 µM (inactive); in assay [15] it was 16.1 µM (inactive); in assay [2], 44 µM (inactive); in assay [3] it was 34.4 µM (inactive); in [16] it was 93.1 µM (inactive); in assay [4], 2.52 µM (inactive). Also, the GI50 is 33.7 µM (inactive) in assay [5]; 28.9 µM (inactive) in [6]; > 100 µM (inactive) in assay [7]; 46.6 µM (inactive) in assay [8]; > 95.1 µM (inactive) in assay [9]; 89.9 µM (inactive) in assay [10]. Besides, the GI50 is 44.6 µM (inactive) in [11], 38.3 µM (inactive) in assay [12] and > 100 µM (inactive) in [13].

Take `C[S+](C)CC1OC(n2cnc3c(N)ncnc32)C(O)C1O` (configuration not stated): the GI50 in [1], in assay [15], in assay [2], in [3], in assay [4] and in assay [5] was > 225 µM (inactive) throughout. In addition, the GI50 in [6], in assay [7], in [8], in assay [9], in [10] and in [11] was > 225 µM (inactive) each time. Further, the GI50 in assay [12], in [13] and in [14] was > 225 µM (inactive) in each case.

Regarding `CCOC(=O)C(=O)NC12CC3CC(CC(C3)C1)C2`, the GI50 in [1], in assay [15], in assay [2], in assay [3], in assay [16] and in assay [4] was > 100 µM (inactive) each time. Further, the GI50 in [5], in assay [6], in [7], in [8], in assay [9] and in assay [10] was > 100 µM (inactive) in each case. The GI50 in assay [12], in assay [13] and in assay [14] was > 100 µM (inactive) each time.

On to `O=C(CC/C=C(/CS(=O)(=O)c1ccccc1)S(=O)(=O)c1ccccc1)c1ccccc1`, for which the GI50 in assay [15] is 21.7 µM (inactive); in [2], > 100 µM (inactive); in [3] it was > 100 µM (inactive); in [16], > 100 µM (inactive); in [4], > 100 µM (inactive); in [5], > 100 µM (inactive). Moreover, the GI50 is > 10 µM (inactive) in assay [6]; > 100 µM (inactive) in assay [7]; 44 µM (inactive) in assay [9]; > 100 µM (inactive) in assay [10]; > 100 µM (inactive) in assay [12]; > 100 µM (inactive) in [13]. Also, the GI50 in assay [14] is 95.9 µM (inactive).

Take `CC(=O)OCC1OC(Nc2ncc(-c3ccc(C)cc3)s2)C(OC(C)=O)C(OC(C)=O)C1OC(C)=O` (configuration not stated): the GI50 in assay [1] is 40.5 µM (inactive); in [15], 35.6 µM (inactive); in assay [2], > 58.9 µM (inactive); in assay [3], 23.3 µM (inactive); in [16], 35.8 µM (inactive); in assay [4] it was 42.6 µM (inactive). The GI50 is 61.5 µM (inactive) in assay [6]; 38.1 µM (inactive) in assay [7]; 45.5 µM (inactive) in assay [8]; 68.4 µM (inactive) in assay [9]; > 100 µM (inactive) in assay [10]; 40.8 µM (inactive) in assay [11]. Also, the figures for the GI50 in [12] and in assay [13] were 74.5 µM (inactive) and 19.8 µM (inactive), respectively.

As to `COC(=O)C(Cc1ccc(N(C)C)cc1)(NC(=O)c1ccccc1)P(=O)(OC)OC` (configuration not stated), the GI50 in assay [1], in assay [15], in assay [2], in [3], in assay [4] and in [5] was > 100 µM (inactive) in each case. Besides, the GI50 in [7], in assay [8], in [9], in assay [10], in assay [12] and in assay [13] was > 100 µM (inactive) each time. The GI50 in [14] is > 100 µM (inactive).

As for `C[Si](C)(C)/C(I)=C/CO`, the GI50 in assay [1] was 16.3 µM (inactive); in [2], 20.6 µM (inactive); in assay [16], 32 µM (inactive); in [4], 24 µM (inactive); in [5] it was 20.5 µM (inactive); in assay [6], 27.1 µM (inactive). The GI50 is 30.5 µM (inactive) in [7]; 27.1 µM (inactive) in assay [8]; 32.5 µM (inactive) in assay [9]; 29.6 µM (inactive) in assay [10]; 28.6 µM (inactive) in assay [11]; 23.3 µM (inactive) in assay [12]. The GI50 in assay [13] is 34.4 µM (inactive); in assay [14] it was 13.6 µM (inactive).

For `O=S1(=O)CC#CC[C@@H](CO)[C@@H](CO)CC#CC1`, the GI50 in assay [3] was > 100 µM (inactive); in [4] it was 31.5 µM (inactive); in [5] it was > 100 µM (inactive); in assay [6], 21.7 µM (inactive); in assay [7], > 100 µM (inactive); in assay [9], > 100 µM (inactive). Moreover, the GI50 in [11] was > 100 µM (inactive); in assay [12] it was 36.4 µM (inactive); in assay [13], > 100 µM (inactive); in assay [14], > 100 µM (inactive).

As usually defined, the GI50 is the concentration giving 50% growth inhibition.

The values are drawn from ChEMBL document CHEMBL1201862, “PubChem BioAssay data set” (2004).
